Assay in all cases: DTP human tumour cell line panel, 48 h
The subject of experiment [1] is A498 renal.
In experiment [2] the test system is BT-549 breast.
The test system of experiment [3] is HCC-2998 colon.
Experiment [4] has as its system HT29 colon.
For experiment [5], the system named is LOX IMVI melanoma.
For experiment [6], the system named is MCF7 breast.
For experiment [7], the system named is NCI-H23 lung.
Experiment [8] relates to NCI-H522 lung.
The subject of experiment [9] is SF-539 CNS.
For experiment [10], the system named is TK-10 renal.

Each structure is given as a SMILES string. “And” between values parts separate entries of the source, which are not always exact repeats. Equal values may be shown once.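 Each compound was tested at five concentrations against cells in 96-well plates for 48 hours. GI50 is the concentration that inhibits growth by half. TGI marks complete inhibition of growth.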

One may read the GI50 as the concentration giving 50% growth inhibition. As a reminder, the TGI is the concentration at which net growth stops. A higher TGI goes with lower sensitivity of the cells. On to `Cc1cc(NC(=O)NCCOc2ccc(N3C(N)=NC(N)=NC3(C)C)cc2Cl)ccc1S(=O)(=O)F`, for which the GI50 in [1] was 10.2 µM; in experiment [2] it was 6.31 µM; in [3] it was 2.96 µM; in experiment [4], 0.484 µM; in experiment [5], 0.74 µM; in experiment [6], 1.7 µM. Also, the GI50 was 2.76 µM in experiment [7], 2.54 µM in experiment [8], 2.93 µM in experiment [9] and 6.23 µM in experiment [10]. The total growth inhibition concentration (TGI) in experiment [1] was > 100 µM; in experiment [2], > 76.8 µM; in experiment [3], > 100 µM; in experiment [4], 13.8 µM; in experiment [5], > 100 µM; in experiment [6], 50.3 µM. Also, the total growth inhibition concentration (TGI) in [7] is > 100 µM; in experiment [8], 17.7 µM; in experiment [9] it was 18.1 µM; in [10] it was > 100 µM.
`COc1ccc(C2=Nn3c(nnc3-c3ccc(F)c(Cl)c3)SC2)cc1`: the GI50 in [1], in experiment [2], in experiment [3], in experiment [4], in experiment [5] and in [6] was > 100 µM throughout. Besides, the GI50 in experiment [7], in [8], in [9] and in [10] was > 100 µM each time. Besides, the concentration for total growth inhibition (TGI) in [1], in experiment [2], in experiment [3], in [4], in [5] and in experiment [6] was > 100 µM in each case. For the same compound, the total growth inhibition concentration (TGI) in [7], in experiment [8], in experiment [9] and in experiment [10] was > 100 µM in each case.
For the compound `O=C(O)CCC(O)=C1S(=O)(=O)OCCOS1(=O)=O`, the TGI in [1], in experiment [2], in experiment [3], in [4], in experiment [5] and in experiment [6] was > 100 µM each time. In addition, the TGI in [7], in experiment [8], in [9] and in [10] was > 100 µM throughout.
For the compound `COc1ccc(CCN2CCCn3c2nc2ccccc2c3=O)cc1`, the 50% growth inhibitory concentration (GI50) in [1] was 0.0296 µM; in [2] it was 0.717 µM; in experiment [3], 0.362 µM; in [4], 0.0365 µM; in experiment [5] it was 0.0762 µM; in experiment [6], 0.0295 µM. The 50% growth inhibitory concentration (GI50) in experiment [7] was 0.232 µM; in experiment [8], 0.035 µM; in experiment [9] it was 0.0876 µM. In addition, the TGI was 0.814 µM in [1]; > 100 µM in experiment [2]; > 100 µM in [3]; > 28.4 µM in experiment [4]; > 100 µM in experiment [5]; > 100 µM in experiment [6]. The TGI is > 83.9 µM in experiment [7], 1.14 µM in [8], 0.432 µM in [9] and > 100 µM in experiment [10].
Take `CN[C@@H](C)C(=O)N[C@H](C(=O)N1CCC[C@H]1c1nc(C(=O)c2ccc(F)cc2)cs1)C1CCCCC1`: the GI50 in [1] was 6.59 µM; in [2], 11.7 µM; in experiment [3], 16 µM; in experiment [4] it was 20.5 µM; in experiment [5], 19 µM; in [6], 16.1 µM. Further, the GI50 is 11.2 µM in [7], 3.45 µM in experiment [8], 0.838 µM in experiment [9] and 22.3 µM in experiment [10]. Further, the total growth inhibition concentration (TGI) in experiment [1] was determined as 25.4 µM; in [2], 26.7 µM; in experiment [3], 31.2 µM; in experiment [4], 42.8 µM; in [5] it was 37 µM; in experiment [6], 32.8 µM. The concentration for total growth inhibition (TGI) was > 62.1 µM in experiment [7], 16.5 µM in experiment [8], 17.6 µM in [9] and 45.6 µM in experiment [10].
Turning to `OCc1c(-c2cccs2)oc(-c2cccs2)c1CO`, the GI50 in [1] is 34.3 µM; in experiment [2], 56 µM; in experiment [3] it was 21.1 µM; in experiment [4], 41 µM; in [5], 26.6 µM; in experiment [6], 1.62 µM. For the same compound, the GI50 in experiment [7] was 38.7 µM; in experiment [8], 39.1 µM; in experiment [9], 50.9 µM; in [10], 10.2 µM. For the same compound, the concentration for total growth inhibition (TGI) in [1] was 91.7 µM; in experiment [2], > 100 µM; in [3], 45.6 µM; in experiment [4], > 100 µM; in experiment [5], 52.7 µM; in [6] it was > 100 µM. For the same compound, the TGI in experiment [7] was > 100 µM; in experiment [8], > 100 µM; in [9] it was > 100 µM; in experiment [10], 56.7 µM.
In the case of `COc1ccc(-c2cn(C)c3c2-n2cccc2C3=O)cc1O`, the GI50 in [1] was 2.82 µM; in [2], 3.99 µM; in experiment [3] it was 2.48 µM; in experiment [4] it was 18 µM; in experiment [5], 3.71 µM; in experiment [6], 0.806 µM. For the same compound, the GI50 in experiment [7] was 3.22 µM; in [8], 10.1 µM; in experiment [9] it was 1.76 µM; in experiment [10], 3.05 µM. Further, the TGI in experiment [1] is 9.4 µM; in experiment [2] it was 23.2 µM; in experiment [3], 6.46 µM; in experiment [4], > 100 µM; in experiment [5] it was 13.3 µM; in experiment [6] it was 20.3 µM. Also, the total growth inhibition concentration (TGI) in experiment [7] amounted to 16.5 µM; in [8], 40.8 µM; in experiment [9] it was 16.5 µM; in [10], 8.29 µM.
As for `CCC/C=C/C=C/C(=O)OC1/C(=C/C(=O)OC)CC2CC(C(C)O)OC(=O)CC(O)CC3CC(OC(C)=O)C(C)(C)C(O)(CC4C/C(=C/C(=O)OC)CC(/C=C/C(C)(C)C1(O)O2)O4)O3` (centres undefined), the GI50 is 7.67 µM and 9.27 µM in experiment [1]; > 12.5 µM in [2]; > 10.9 µM and 4.72 µM and > 12.5 µM in experiment [3]; > 10.9 µM and 5.12 µM and > 12.5 µM in experiment [4]; > 10.9 µM and 8.02 µM and > 12.5 µM in [5]; > 10.9 µM and 5.88 µM and > 12.5 µM in [6]. The GI50 in experiment [7] was > 12.5 µM; in [8] it was > 11 µM; in experiment [9], > 11 µM; in experiment [10] it was > 11 µM. Besides, the TGI was 10.9 µM and 11 µM and > 12.5 µM in experiment [1]; 11 µM and > 12.5 µM in experiment [2]; > 10.9 µM and 9 µM and > 12.5 µM in experiment [3]; > 10.9 µM and 10.8 µM and > 12.5 µM in [4]; > 10.9 µM and 11 µM and > 12.5 µM in experiment [5]; > 10.9 µM and 11 µM and > 12.5 µM in experiment [6]. The concentration for total growth inhibition (TGI) in experiment [7] was > 10.9 µM and 11 µM and > 12.5 µM; in [8], > 12.5 µM; in experiment [9] it was > 12.5 µM; in experiment [10], > 12.5 µM.

(Values after PubChem BioAssay (NCI).)
